Test results published in US20230348496A1, “PESTICIDALLY ACTIVE HETEROCYCLIC DERIVATIVES WITH SULFUR CONTAINING SUBSTITUENTS” (SYNGENTA CROP PROTECTION AG, priority 2020, published 2023).

How the values were obtained:
Type in all cases: in vivo
[1] = tested on: Diabrotica Balteata (Corn Root Worm); assay: Activity against Diabrotica balteata (corn root worm), sprayed maize sprouts; settings: 96 h, application rate 200 ppm, L2 larvae on sprayed maize sprouts, 4 days after infestation, read-out: effect in at least one of the two categories (mortality or growth inhibition)
Experimental: Example B1: Activity Against Diabrotica Balteata (Corn Root Worm)
Maize sprouts placed onto an agar layer in 24-well microtiter plates were treated with aqueous test solutions prepared from 10′000 ppm DMSO stock solutions by spraying. After drying, the plates were infested with L2 larvae (6 to 10 per well). The samples were assessed for mortality and growth inhibition in comparison to untreated samples 4 days after infestation.

[2] = tested on: Myzus persicae (Green Peach Aphid); assay: Activity against Myzus persicae (green peach aphid), feeding/contact activity; settings: foliar, 144 h, application rate 200 ppm, sprayed sunflower leaf discs, aphid population of mixed ages, 6 days after infestation
Experimental: Example B2: Activity Against Myzus persicae (Green Peach Aphid) Feeding/Contact Activity
Sunflower leaf discs were placed onto agar in a 24-well microtiter plate and sprayed with aqueous test solutions prepared from 10′000 ppm DMSO stock solutions. After drying, the leaf discs were infested with an aphid population of mixed ages. The samples were assessed for mortality 6 days after infestation.

[3] = tested on: Spodoptera littoralis (Egyptian Cotton Leaf Worm); assay: Activity against Spodoptera littoralis (Egyptian cotton leaf worm); settings: foliar, 72 h, application rate 200 ppm, sprayed cotton leaf discs, L1 larvae, 3 days after infestation
Experimental: Example B3: Activity Against Spodoptera littoralis (Egyptian Cotton Leaf Worm)
Cotton leaf discs were placed onto agar in 24-well microtiter plates and sprayed with aqueous test solutions prepared from 10′000 ppm DMSO stock solutions. After drying the leaf discs were infested with five L1 larvae. The samples were assessed for mortality, anti-feeding effect, and growth inhibition in comparison to untreated samples 3 days after infestation. Control of Spodoptera littoralis by a test sample is given when at least one of the categories mortality, anti-feedant effect, and growth inhibition is higher than the untreated sample.

[4] = tested on: Chilo suppressalis (Striped Rice Stemborer); assay: Activity against Chilo suppressalis (striped rice stemborer); settings: 144 h, application rate 200 ppm, artificial diet, L2 larvae, 6 days after infestation
Experimental: Example B5: Activity Against Chilo suppressalis (Striped Rice Stemborer)
24-well microtiter plates with artificial diet were treated with aqueous test solutions prepared from 10′000 ppm DMSO stock solutions by pipetting. After drying, the plates were infested with L2 larvae (6-8 per well). The samples were assessed for mortality, anti-feeding effect, and growth inhibition in comparison to untreated samples 6 days after infestation. Control of Chilo suppressalis by a test sample is given when at least one of the categories mortality, anti-feedant effect, and growth inhibition is higher than the untreated sample.

[5] = tested on: Plutella xylostella (Diamond Back Moth); assay: Activity against Plutella xylostella (diamond back moth); settings: 192 h, application rate 200 ppm, artificial diet, Plutella eggs, 8 days after infestation, read-out: effect in at least one of the two categories (mortality or growth inhibition)
Experimental: Example B8: Activity Against Plutella xylostella (Diamond Back Moth)
24-well microtiter plates with artificial diet were treated with aqueous test solutions prepared from 10′000 ppm DMSO stock solutions by pipetting. After drying, Plutella eggs were pipetted through a plastic stencil onto a gel blotting paper and the plate was closed with it. The samples were assessed for mortality and growth inhibition in comparison to untreated samples 8 days after infestation.

[6] = tested on: Nilaparvata lugens (Brown Plant Hopper); assay: Activity against Nilaparvata lugens (brown plant hopper), larvicide, systemic into water; settings: 168 h, application rate 12.5 ppm, rice plants in nutritive solution, N3 nymphs, 7 days after infestation
Experimental: Example B9: Activity Against Nilaparvata lugens (Brown Plant Hopper) Larvicide, Systemic into Water
Rice plants cultivated in a nutritive solution were treated with the diluted test solutions into nourishing cultivation system. 1 day after application plants were infested with ˜20 N3 nymphs. 7 days after infestation samples were assessed for mortality and growth regulation.

[7] = tested on: Carpocapsa (Cydia) Pomonella (Codling Moth); assay: Activity against Carpocapsa (Cydia) pomonella (codling moth), larvicide, feeding/contact; settings: 336 h, application rate 12.5 ppm, sprayed diet cubes, L1 larvae, 14 days after infestation
Experimental: Example B10: Activity Against Carpocapsa (Cydia) Pomonella (Codling Moth) Larvicide, Feeding/Contact
Diet cubes coated with paraffin were sprayed with diluted test solutions in an application chamber. After drying off the treated cubes (10 replicates) were infested with 1 L1 larvae. Samples were incubated at 26-27° C. and checked 14 days after infestation for mortality and growth inhibition.

[8] = tested on: Frankliniella occidentalis (Western Flower Thrips); assay: Activity against Frankliniella occidentalis (western flower thrips); settings: foliar, 168 h, application rate 200 ppm, sprayed sunflower leaf discs, population of mixed ages, 7 days after infestation
Experimental: Example B7: Activity Against Frankliniella occidentalis (Western Flower Thrips)
Sunflower leaf discs were placed on agar in 24-well microtiter plates and sprayed with aqueous test solutions prepared from […] stock solutions. After drying the leaf discs were infested with a Frankliniella population of mixed ages. The samples were assessed for mortality 7 days after infestation.

[9] = tested on: Euschistus heros (Neotropical Brown Stink Bug); assay: Activity against Euschistus heros (neotropical brown stink bug); settings: 120 h, application rate 200 ppm, sprayed soybean leaves, N2 nymphs, 5 days after infestation, read-out: effect in at least one of the two categories (mortality or growth inhibition)
Experimental: Example B6: Activity Against Euschistus heros (Neotropical Brown Stink Bug)
Soybean leaves on agar in 24-well microtiter plates were sprayed with aqueous test solutions prepared from 10′000 ppm DMSO stock solutions. After drying the leaves were infested with N2 nymphs. The samples were assessed for mortality and growth inhibition in comparison to untreated samples 5 days after infestation.

[10] = tested on: Myzus persicae (Green Peach Aphid); assay: Myzus persicae (green peach aphid), systemic activity; settings: 144 h, test rate 24 ppm, roots of infested pea seedlings in test solution, 6 days
Experimental: Example B11: Myzus persicae (Green Peach Aphid). Systemic Activity
Roots of pea seedlings infested with an aphid population of mixed ages were placed directly into aqueous test solutions prepared from 10′000 DMSO stock solutions. The samples were assessed for mortality 6 days after placing seedlings into test solutions.

[11] = tested on: Bemisia tabaci (Cotton White Fly); assay: Activity against Bemisia tabaci (cotton white fly); settings: foliar, 144 h, application rate 200 ppm, sprayed cotton leaf discs, adult white flies, 6 days after incubation
Experimental: Example B4: Activity Against Bemisia tabaci (Cotton White Fly)
Cotton leaf discs were placed on agar in 24-well microtiter plates and sprayed with aqueous test solutions prepared from 10′000 ppm DMSO stock solutions. After drying the leaf discs were infested with adult white flies. The samples were checked for mortality 6 days after incubation.

CCS(=O)(=O)c1c(N2Cc3ncc(C(F)(F)F)cc3C2=O)nn2cc(C(F)(F)F)ccc12 [Compound P6, 6-[3-ethylsulfonyl-6-(trifluoromethyl)pyrazolo[1,5-a]pyridin-2-yl]-3-(trifluoromethyl)-7H-pyrrolo[3,4-b]pyridin-5-one]
≥ 80%: percent effect (mortality or growth inhibition) at 200 ppm [1] | mortality at 200 ppm [2] | percent control (mortality, anti-feedant effect or growth inhibition) at 200 ppm [3] | percent control (mortality, anti-feedant effect or growth inhibition) at 200 ppm [4] | percent effect (mortality or growth inhibition) at 200 ppm [5] | mortality at 12.5 ppm [6] | mortality at 12.5 ppm [7]

CCS(=O)(=O)c1c(N2Cc3ccc(S(=O)(=O)C(F)(F)F)cc3C2=O)nn2ccc(C(F)(F)F)cc12 [Compound P3, 2-[3-ethylsulfonyl-5-(trifluoromethyl)pyrazolo[1,5-a]pyridin-2-yl]-6-(trifluoromethylsulfonyl)isoindolin-1-one]
≥ 80%: percent effect (mortality or growth inhibition) at 200 ppm [1] | mortality at 200 ppm [2] | percent control (mortality, anti-feedant effect or growth inhibition) at 200 ppm [3] | percent control (mortality, anti-feedant effect or growth inhibition) at 200 ppm [4] | mortality at 200 ppm [8] | percent effect (mortality or growth inhibition) at 200 ppm [5] | mortality at 12.5 ppm [7]

CCS(=O)(=O)c1c(N2Cc3ncc(C(F)(F)F)cc3C2=O)nn2cc(C(C)(C)C#N)ccc12 [Compound P7, 2-[3-ethylsulfonyl-2-[5-oxo-3-(trifluoromethyl)-7H-pyrrolo[3,4-b]pyridin-6-yl]pyrazolo[1,5-a]pyridin-6-yl]-2-methyl-propanenitrile]
≥ 80%: percent effect (mortality or growth inhibition) at 200 ppm [1] | mortality at 200 ppm [2] | percent control (mortality, anti-feedant effect or growth inhibition) at 200 ppm [3] | percent control (mortality, anti-feedant effect or growth inhibition) at 200 ppm [4] | percent effect (mortality or growth inhibition) at 200 ppm [9] | mortality at 200 ppm [8] | percent effect (mortality or growth inhibition) at 200 ppm [5] | mortality at 24 ppm [10]

CCS(=O)(=O)c1c(N2Cc3ncc(C(F)(F)F)cc3C2=O)nn2cc(C3(C#N)CC3)ccc12 [Compound P4, 1-[3-ethylsulfonyl-2-[5-oxo-3-(trifluoromethyl)-7H-pyrrolo[3,4-b]pyridin-6-yl]pyrazolo[1,5-a]pyridin-6-yl]cyclopropanecarbonitrile]
≥ 80%: percent effect (mortality or growth inhibition) at 200 ppm [1] | mortality at 200 ppm [2] | percent control (mortality, anti-feedant effect or growth inhibition) at 200 ppm [3] | percent control (mortality, anti-feedant effect or growth inhibition) at 200 ppm [4] | percent effect (mortality or growth inhibition) at 200 ppm [9] | mortality at 200 ppm [8] | percent effect (mortality or growth inhibition) at 200 ppm [5] | mortality at 12.5 ppm [6] | mortality at 12.5 ppm [7]

CCS(=O)(=O)c1c(N2Cc3ccc(OC(F)(F)F)cc3C2=O)nn2ccc(C(F)(F)F)cc12 [Compound P2, 2-[3-ethylsulfonyl-5-(trifluoromethyl)pyrazolo[1,5-a]pyridin-2-yl]-6-(trifluoromethoxy)isoindolin-1-one]
≥ 80%: percent effect (mortality or growth inhibition) at 200 ppm [1] | mortality at 200 ppm [2] | percent control (mortality, anti-feedant effect or growth inhibition) at 200 ppm [3] | mortality at 200 ppm [11] | percent control (mortality, anti-feedant effect or growth inhibition) at 200 ppm [4] | percent effect (mortality or growth inhibition) at 200 ppm [5] | mortality at 12.5 ppm [7]

CCS(=O)(=O)c1c(N2Cc3ncc(C(F)(F)F)cc3C2=O)nn2ccc(C(F)(F)F)cc12 [Compound P5, 6-[3-ethylsulfonyl-5-(trifluoromethyl)pyrazolo[1,5-a]pyridin-2-yl]-3-(trifluoromethyl)-7H-pyrrolo[3,4-b]pyridin-5-one]
≥ 80%: percent effect (mortality or growth inhibition) at 200 ppm [1] | percent control (mortality, anti-feedant effect or growth inhibition) at 200 ppm [3] | percent control (mortality, anti-feedant effect or growth inhibition) at 200 ppm [4] | percent effect (mortality or growth inhibition) at 200 ppm [9] | percent effect (mortality or growth inhibition) at 200 ppm [5] | mortality at 12.5 ppm [6] | mortality at 12.5 ppm [7]

CCS(=O)(=O)c1c(N2Cc3ncc(C(F)(F)F)cc3C2=O)nn2cc(C3CC3)ccc12 [Compound P1, 6-(6-cyclopropyl-3-ethylsulfonyl-pyrazolo[1,5-a]pyridin-2-yl)-3-(trifluoromethyl)-7H-pyrrolo[3,4-b]pyridin-5-one]
≥ 80%: percent effect (mortality or growth inhibition) at 200 ppm [1] | mortality at 200 ppm [2] | percent control (mortality, anti-feedant effect or growth inhibition) at 200 ppm [3] | percent control (mortality, anti-feedant effect or growth inhibition) at 200 ppm [4] | percent effect (mortality or growth inhibition) at 200 ppm [9] | percent effect (mortality or growth inhibition) at 200 ppm [5] | mortality at 12.5 ppm [6] | mortality at 12.5 ppm [7]
